What is called IC50 is the concentration at which inhibition is half-maximal. Broadly, the MIC50 is an inhibitory concentration at the 50% level, which refers to growth in some studies and to a panel of isolates in others. The MIC90 is the lowest concentration that inhibits either 90% of growth or 90% of the strains tested, depending on the study. Read a low MIC90 as higher susceptibility. Broadly, the Papp A→B is the apparent permeability from the apical to the basolateral side of a cell layer. Lower therefore signals poor permeation. Usually MIC stands for the lowest concentration that inhibits growth of the organism. A high value points to a less susceptible organism.

From patent US20260226077A1, “TYPE II TOPOISOMERASE INHIBITORS AND METHODS OF MAKING AND USING THEREOF” (Ohio State Innovation Foundation, priority 2023, published 2026) come the findings set out here.

One series deals with hERG (Homo sapiens, UniProt Q12809). Briefly: hERG inhibition. It is filed as cell-based. (In general: Block of hERG is tested as a sign of cardiac risk.)
Chain of hERG (Q12809 whole entry): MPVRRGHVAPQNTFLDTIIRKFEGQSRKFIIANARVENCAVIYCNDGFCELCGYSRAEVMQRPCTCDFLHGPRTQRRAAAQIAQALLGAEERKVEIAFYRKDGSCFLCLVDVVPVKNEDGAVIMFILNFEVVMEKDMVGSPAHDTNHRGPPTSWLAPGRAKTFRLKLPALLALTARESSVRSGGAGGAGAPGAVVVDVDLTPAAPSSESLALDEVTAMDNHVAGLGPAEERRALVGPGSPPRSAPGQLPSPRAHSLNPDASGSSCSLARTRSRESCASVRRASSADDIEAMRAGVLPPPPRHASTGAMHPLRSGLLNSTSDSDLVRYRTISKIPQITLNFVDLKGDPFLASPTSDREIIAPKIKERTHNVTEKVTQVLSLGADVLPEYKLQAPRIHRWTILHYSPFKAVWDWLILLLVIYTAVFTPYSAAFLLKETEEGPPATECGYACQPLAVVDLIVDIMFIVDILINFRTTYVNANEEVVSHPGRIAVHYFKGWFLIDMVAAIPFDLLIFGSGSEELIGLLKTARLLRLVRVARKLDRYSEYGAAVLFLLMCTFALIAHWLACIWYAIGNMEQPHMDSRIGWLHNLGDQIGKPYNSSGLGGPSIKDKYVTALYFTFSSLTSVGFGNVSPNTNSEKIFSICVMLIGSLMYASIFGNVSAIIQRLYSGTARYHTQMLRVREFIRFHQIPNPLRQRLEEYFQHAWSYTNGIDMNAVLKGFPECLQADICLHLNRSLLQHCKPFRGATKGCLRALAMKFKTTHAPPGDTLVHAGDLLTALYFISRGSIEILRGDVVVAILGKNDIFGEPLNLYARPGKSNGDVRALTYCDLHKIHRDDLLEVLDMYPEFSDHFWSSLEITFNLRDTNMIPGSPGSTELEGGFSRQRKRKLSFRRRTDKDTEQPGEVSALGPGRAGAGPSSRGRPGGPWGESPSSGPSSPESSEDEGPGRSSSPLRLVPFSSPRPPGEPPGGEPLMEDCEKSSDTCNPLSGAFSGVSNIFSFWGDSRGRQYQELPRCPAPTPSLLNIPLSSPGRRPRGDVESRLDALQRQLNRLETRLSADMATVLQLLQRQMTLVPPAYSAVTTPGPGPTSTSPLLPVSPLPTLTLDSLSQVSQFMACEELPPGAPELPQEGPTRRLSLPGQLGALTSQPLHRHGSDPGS
The next series is described as follows: In vitro micronucleus. Type of series: cell-based.
Series [1] has as its system Mycobacterium chimaera intracellulare group. Briefly: MIC50 against Mycobacterium chimaera intracellulare group. Type of series: cell-based. The note with it: n = 6.
A further series relates to Neisseria gonorrhoeae. Briefly: MIC50/90 against Neisseria gonorrhoeae. It is filed as cell-based.
Series [2] can be described thus: Permeability: CACO-2 A->B. The following applies: human, Caco-2. Type of series: in vitro ADME. Background: Passage across Caco-2 layers is used to estimate intestinal permeability.
In another series the test system is FQ-R MRSA. Description: MIC against FQ-R MRSA isolates. It is filed as cell-based, Staphylococcus aureus. The note with it: Staphylococcus aureus, MRSA; n = 15 (147), n = 25 (284, 319, gepotidacin).
In a further series the test system is S. aureus CF isolate. Description: MIC against S. aureus CF isolate. It is filed as cell-based. The note with it: Staphylococcus aureus.
A short description of a further series: Dog microsomal stability. The note with it: microsomes, read-out: Dog microsom. t1/2. Type of series: in vitro ADME.
The nature of another series: Rat microsomal stability. The following applies: microsomes, read-out: Rat microsom. t1/2. Type of series: in vitro ADME.
Series [3] deals with Pseudomonas aeruginosa 27853. Description: MIC against Pseudomonas aeruginosa 27853. It is filed as cell-based.
A short description of series [4]: in vitro. The note with it: mouse, plasma.
Series [5] in a line: in vitro. The following applies: human, plasma.
[6] abbreviates: Neisseria gonorrhoeae, n = 17 (284, gepotidacin), n = 110 (147).

In brackets after ≈: the same amount, converted by molar mass.

Turning to `COc1ccc2ncc(F)c(C[C@H](O)[C@H]3OC[C@H](NCc4cnc5c(n4)NC(=O)CO5)CO3)c2n1` [Compound 284, 6-(((2-((S)-2-(3-fluoro-6-methoxy-1,5-naphthyridin-4-yl)-1-hydroxyethyl)-trans-1,3-dioxan-5-yl)amino)methyl)-2H-pyrazino[2,3-b][1,4]oxazin-3(4H)-one], the “Kinetic solubility at pH 7.4-7.5 (μM)” value is recorded as > 200 μM. The compound further came in with an IC50 against hERG of 104 µM. Further, in “In vitro micronucleus”, the In vitro micronucleus result is “Pos. at high”. The same compound displayed an MIC50 in [1] of 64 µg/mL (≈ 132 µM). In the series on Neisseria gonorrhoeae (Neisseria gonorrhoeae, n = 100), this compound showed an MIC50 of 0.5 µg/mL (≈ 1.03 µM). For the same compound, in the series with Neisseria gonorrhoeae (setting [6]), the MIC50 worked out at 1 µg/mL (≈ 2.06 µM) and the MIC90 is 2 µg/mL (≈ 4.11 µM). In addition, the “Neisseria gonorrhoeae MIC90” value in the series with Neisseria gonorrhoeae (n = 100) came out at 2 µg/mL. The same compound gave a Papp A→B in [2] of 1.5 ×10⁻⁶ cm/s. Besides, in the series with FQ-R MRSA, the MIC90 came out at 0.12 µg/mL (≈ 0.247 µM). Further, the MIC with S. aureus CF isolate fell in the range of 0.125 to 0.25 µg/mL (≈ 0.257 to 0.514 µM). In addition, the half-life in the series “Dog microsomal stability” is > 120 min. Also, the half-life in “Rat microsomal stability” was > 120 min. In series [3], this compound showed an MIC of 64 µg/mL (≈ 132 µM). In addition, the half-life in “in vitro [4]” is > 120 min. Besides, the half-life in the series “in vitro [5]” is > 120 min.
